From patent US20240382438A1, “Calcium Channel Blockers and Methods Thereof” (University of Maryland, Eastern Shore, priority 2023, published 2024)
“Also recorded” adds a separate entry of the source.

Legend:
human Cav3.2 = target: T1, human Cav3.2 (Homo sapiens, UniProt O95180); test: Whole-cell patch clamp of T-type Ca2+ currents in Cav3.2-stable transfected HEK 293 cells; format: cell-based; conditions: for Effect on whole cell capacitance / Effect on T-type Ca2+ current density: 50 μM; for Effect on T-type Ca2+ current density: vs non-treated cells
T1 construct: host or cells: HEK 293
Method: Certain exemplary embodiments have undergone target identification studies to discover a better officious T-type calcium blocker. The fourteen trifluoromethylated N-benzamide enaminone compounds were synthesized, purified, and structure confirmed using gas chromatography/mass spectroscopy, nuclear magnetic resonance, and elemental analysis. Preliminary in vitro whole cell patch clamp experiments were performed to assess the inhibitory effects of several target analogs on voltage-activated calcium currents in human embryonic kidney (HEK-293) cells. Cav3.2 transfected HEK 293 cells were treated with 50 μM of test compounds and compared to the control group (none pretreated HEK 293 cells).
(§1) ND7/23 cells are derived from the fusion of mouse neuroblastoma and rat dorsal root ganglion cells, which generates a more homogeneous sensory neuron-like cell population. ND7/23 cells were purchased from Sigma-Aldrich (RRID:CVCL_4259). Culture and differentiation of ND7/23 cells was performed as previously described. Briefly, ND7/23 cells were cultured in DMEM/F12 culture media (Millipore, Cat. #DF-041-B), supplemented with 0.5% fetal bovine serum (Invitrogen, Cat. #10437010), db-cAMP (1 mM, Sigma-Aldrich, Cat. #D0627), and nerve growth factor (NGF, 50 ng/mL, Sigma-Aldrich, Ca. #N2513). To remove any proliferating cells, cultures were treated with uridine (20 μM, Sigma-Aldrich, Cat. #U3003) and fluorodeoxyuridine (20 μM, Sigma-Aldrich, Cat. #F0503). Cells were maintained in differentiation media without uridine and fluorodeoxyuridin after induction of differentiation. ND7/23 cells were maintained in differentiation media for ≤6 days. HEK 293 cells that were stabled transfected with the human Cav3.2 and Cav3.3 channel subunits were a gift of Dr. E. Perez-Reyes (University of Virginia). Cav3.2 (or Cav3.3)-stabled transfected HEK 293 cells were culture in DMEM/F12 culture media, supplemented with 5% fetal bovine serum, 50 U/mL penicillin and 50 μg/mL streptomycin. ND7/23 and HEK 293 cells were grown in an incubator at 37° C. in the presence of 5% CO2/95% air humidified atmosphere. Cells passaged less than 20 times were used in this work. Cells were grown in poly-D-lysine-coated glass coverslips for electrophysiological recordings.
Whole cell recordings were performed as previously described. A Nikon Eclipse Ti inverted microscope equipped with Hoffman optics and epifluorescence filters was used to visualize individual cells. Recordings were performed at room temperature (22-24° C.) using glass electrodes made from thin wall borosilicate glass (3-5 MΩ). For electrophysiological recordings of inward Ca^2+ currents, outward K^+ currents were eliminated by equimolar substitution of K^+ with Cs^+ in the pipette solution, whereas inward Na^+ currents were eliminated by the use of TEA ions in the external solution, which are unable to go through voltage-gated Na^+ channels. The pipette solution consisted of (in mM) CsCl (120), MgCl2(2), HEPES (10), EGTA (10), ATP (1), and GTP (0.1), pH 7.4 with CsOH. The composition of the normal external saline used for measurements of Ca^2+ currents was (in mM): tetraethylammonium chloride (TEACl, 145), CaCl2 (10), MgCl2(1), HEPES (10), and glucose (5), pH 7.4 adjusted with CsOH. Ca^2+ currents were generated by applying a 200-500 ms-depolarizing step to various potentials from a holding potential of −100 mV. The external solution used to measure Na^+ currents contained (in mM) NaCl (145), KCl (5.3), CaCl2 (0.5), MgCl2 (5.7), HEPES (13), and glucose (5), pH 7.4 adjusted with KOH. The composition of the CsCl-pipette solution used to record Na^+ currents was the same describe above. Na^+ currents were generated by applying a 20 ms-depolarizing step to various potentials from a holding potential of −100 mV. To assess drug-evoked changes on specific ionic conductances, current amplitudes were expressed as current densities as previously reported. […]

[1] = test system: LNCaP prostate cancer cells; test: XTT cell viability assay; format: cell-based; conditions: 50 μM, 48 hours
Excerpt: FIG. 15. Effect of RHB121, RHB62, and RHB95 on the cell viability of LNCaP prostate cancer cells. […] Cell viability was expressed as a percent of control LNCaP cells that received no treatment. Control groups were arbitrarily assigned a 100% viability value.
To assess the effect of RHB62, RHB95, and RHB121 on cell viability, the XTT assay was used.

[2] = test system: differentiated ND7/23 cells; test: Intracellular calcium signals in differentiated ND7/23 cells stimulated with KCl or ionomycin; format: cell-based, mouse neuroblastoma and rat dorsal root ganglion cells; conditions: 50 μM pre-treatment
Method: FIGS. 14A-C. Effect of RHB121 on the intracellular calcium signals generated in differentiated ND7/23 cells following stimulation with 30 mM extracellular K+ ions or the calcium ionophore ionomycin (10 μM). FIG. 14A. […] FIG. 14B. […] FIG. 14C. Relative changes in the intracellular calcium signal generated in differentiated ND7/23 cells by 30 mM KCl or Ionomycin (10 μM) in control or RHB121-treated cells. Control groups were arbitrarily assigned a 100% intracellular calcium signal.
To assess the effect of RHB121 on intracellular calcium signals, differentiated ND7/23 cells with a high potassium concentration (30 mM KCl) were simulated. The effect of the calcium ionophore Ionomycin, which also can increase intracellular calcium by a different mechanism, independently of T-type Ca^2+ channel activation, was also tested. Stimulation of differentiated ND7/23 with 30 mM KCl external solution caused a small increase in the intracellular calcium signal (FIG. 14A).

[3] = test system: voltage-activated Na^+ channels; test: Whole-cell recording of Na+ currents in differentiated ND7/23 cells; format: cell-based, mouse neuroblastoma and rat dorsal root ganglion cells; conditions: 50 μM
Method: as §1
Whole cell recordings were performed as previously described. A Nikon Eclipse Ti inverted microscope equipped with Hoffman optics and epifluorescence filters was used to visualize individual cells. Recordings were performed at room temperature (22-24° C.) using glass electrodes made from thin wall borosilicate glass (3-5 MΩ). For electrophysiological recordings of inward Ca^2+ currents, outward K^+ currents were eliminated by equimolar substitution of K^+ with Cs^+ in the pipette solution, whereas inward Na^+ currents were eliminated by the use of TEA ions in the external solution, which are unable to go through voltage-gated Na^+ channels. […] To assess drug-evoked changes on specific ionic conductances, current amplitudes were expressed as current densities as previously reported. […] Cell capacitance was determined by integrating the transient current evoked by a 10-mV voltage step from a holding potential of −60 mV.
A MULTICLAMP 700A amplifier and PCLAMP software (Axon Instruments) was used to deliver voltage commands and to perform data acquisition and analysis. […] Only cells with stable seals and series resistance (≤10 MΩ) were analyzed. […]

T1 sequence (O95180 whole entry): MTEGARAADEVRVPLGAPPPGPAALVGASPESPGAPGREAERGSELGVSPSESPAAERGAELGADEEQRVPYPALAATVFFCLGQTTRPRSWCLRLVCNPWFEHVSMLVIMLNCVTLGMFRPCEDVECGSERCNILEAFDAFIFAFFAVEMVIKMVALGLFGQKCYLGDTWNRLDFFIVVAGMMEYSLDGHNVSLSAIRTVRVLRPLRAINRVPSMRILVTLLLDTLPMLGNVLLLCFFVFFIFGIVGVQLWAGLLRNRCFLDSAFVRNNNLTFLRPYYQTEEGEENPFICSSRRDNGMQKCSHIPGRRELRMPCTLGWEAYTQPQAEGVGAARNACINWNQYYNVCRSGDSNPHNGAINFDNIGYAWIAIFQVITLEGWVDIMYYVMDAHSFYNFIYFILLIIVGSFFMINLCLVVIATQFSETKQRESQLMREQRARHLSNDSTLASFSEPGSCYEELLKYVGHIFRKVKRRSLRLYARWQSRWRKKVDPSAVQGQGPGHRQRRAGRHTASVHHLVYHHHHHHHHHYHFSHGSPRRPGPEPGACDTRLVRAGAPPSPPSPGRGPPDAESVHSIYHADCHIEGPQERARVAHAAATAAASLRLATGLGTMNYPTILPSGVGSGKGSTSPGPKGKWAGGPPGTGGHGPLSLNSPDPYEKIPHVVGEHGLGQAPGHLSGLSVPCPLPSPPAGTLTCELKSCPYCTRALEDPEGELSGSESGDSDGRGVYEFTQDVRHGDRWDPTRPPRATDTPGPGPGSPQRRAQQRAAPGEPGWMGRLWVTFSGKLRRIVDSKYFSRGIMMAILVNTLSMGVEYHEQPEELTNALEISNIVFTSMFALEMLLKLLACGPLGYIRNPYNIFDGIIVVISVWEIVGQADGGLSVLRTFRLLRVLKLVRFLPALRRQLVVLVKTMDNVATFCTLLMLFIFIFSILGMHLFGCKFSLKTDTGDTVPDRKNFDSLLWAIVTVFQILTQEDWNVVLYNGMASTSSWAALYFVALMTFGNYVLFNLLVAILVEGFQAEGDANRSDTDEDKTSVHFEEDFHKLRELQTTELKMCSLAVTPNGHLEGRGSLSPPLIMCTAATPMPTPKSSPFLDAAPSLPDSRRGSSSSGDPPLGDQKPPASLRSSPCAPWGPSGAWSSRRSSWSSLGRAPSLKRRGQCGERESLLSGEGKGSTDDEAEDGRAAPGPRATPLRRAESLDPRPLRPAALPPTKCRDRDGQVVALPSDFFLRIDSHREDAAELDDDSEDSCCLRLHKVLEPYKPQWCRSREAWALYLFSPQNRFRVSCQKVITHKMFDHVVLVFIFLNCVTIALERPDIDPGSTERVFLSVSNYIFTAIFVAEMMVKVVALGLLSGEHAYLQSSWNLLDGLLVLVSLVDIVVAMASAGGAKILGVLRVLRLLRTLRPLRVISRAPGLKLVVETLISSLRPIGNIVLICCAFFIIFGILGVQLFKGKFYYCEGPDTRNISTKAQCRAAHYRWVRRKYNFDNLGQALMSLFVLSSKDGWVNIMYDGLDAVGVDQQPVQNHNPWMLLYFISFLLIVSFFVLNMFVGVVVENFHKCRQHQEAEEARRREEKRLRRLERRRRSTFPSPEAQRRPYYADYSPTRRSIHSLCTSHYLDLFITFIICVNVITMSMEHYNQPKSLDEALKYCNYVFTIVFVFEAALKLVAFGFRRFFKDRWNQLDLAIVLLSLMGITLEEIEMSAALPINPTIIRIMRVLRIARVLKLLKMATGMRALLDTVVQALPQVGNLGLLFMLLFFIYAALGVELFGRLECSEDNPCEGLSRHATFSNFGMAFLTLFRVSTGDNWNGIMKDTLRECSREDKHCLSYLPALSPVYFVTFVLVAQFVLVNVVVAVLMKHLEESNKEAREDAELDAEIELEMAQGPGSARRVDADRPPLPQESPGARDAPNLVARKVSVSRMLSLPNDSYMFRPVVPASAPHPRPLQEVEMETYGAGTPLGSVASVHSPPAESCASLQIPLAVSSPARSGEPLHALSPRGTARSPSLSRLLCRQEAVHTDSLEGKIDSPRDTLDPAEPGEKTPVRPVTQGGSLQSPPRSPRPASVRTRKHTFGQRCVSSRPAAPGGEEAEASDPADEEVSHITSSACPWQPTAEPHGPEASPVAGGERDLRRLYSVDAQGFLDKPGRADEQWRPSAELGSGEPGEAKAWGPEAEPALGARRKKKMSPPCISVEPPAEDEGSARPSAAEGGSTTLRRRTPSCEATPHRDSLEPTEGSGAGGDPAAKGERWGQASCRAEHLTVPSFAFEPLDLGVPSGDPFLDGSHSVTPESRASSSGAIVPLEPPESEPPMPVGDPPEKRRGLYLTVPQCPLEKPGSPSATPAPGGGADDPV

SMILES	Effect on whole cell capacitance (human Cav3.2; HEK 293-Cav3.2 cells)	Effect on T-type Ca2+ current density (human Cav3.2; HEK 293-Cav3.2 cells)	Effect on T-type Ca2+ current density (human Cav3.2; HEK 293-Cav3.2 cells, listed as RHB-95)	Effect on cell viability (XTT assay) [1]	Effect on activation time constant (τ) (human Cav3.2; 10 μM)	Shift of the steady-state inactivation curve (human Cav3.2; 10 μM)	Effect on whole cell capacitance (human Cav3.2; HEK 293-Cav3.2 cells, listed as RHB 121)	inhibition at 50 µM (human Cav3.2; HEK293, 50 μM, Cav3.2 transfected HEK 293 cells, read-out: Inhibition of calcium currents on T-type calcium channels)	Concentration dependence of the inhibition of T-type Ca2+ currents (human Cav3.2; HEK 293-Cav3.2 cells)	Effect on intracellular calcium signal evoked with 30 mM KCl [2]	Effect on intracellular calcium signal evoked with Ionomycin (10 μM) [2]	Effect on Na+ current density [3]
O=C1C=C(NC(=O)c2cccc(C(F)(F)F)c2)CC(C(F)(F)F)C1 (stereo not drawn) [RHB95]	no significant changes; also recorded: no effect on cell capacitance	significant reduction	No inhibitory effect	do not affect the cell viability; also recorded: no effect on the cell viability								
Cc1cc(C)cc(C(=O)NC2=CC(=O)CC(C(F)(F)F)C2)c1 (stereo not drawn) [RHB62]	no significant changes; also recorded: no effect on cell capacitance	significant reduction; also recorded: reduction in the Ca^+2 current, with lower potency than RHB-77		do not affect the cell viability; also recorded: no effect on the cell viability								
O=C1C=C(NC(=O)c2cccc(OC(F)(F)F)c2)CC(C(F)(F)F)C1 (stereo not drawn) [RHB121, N-(3-oxo-5-(trifluoromethyl)cyclohex-1-en-1-yl)-3-(trifluoromethoxy)benzamide]	no effect on cell capacitance	significant reduction		do not affect the cell viability; also recorded: no effect on the cell viability	does not alter; also recorded: no effect	leftward shift	no significant changes	~100%	concentration-dependent	complete inhibition; also recorded: significant reduction	still evoked a significant response; also recorded: significant reduction	does not affect; also recorded: no effect on the Na^+ current densities
